# Values of other authors as cited in patent US20150297661A1, “ANALGESIC COMPOSITIONS AND METHODS OF USE” (priority 2014, published 2015).
compound,measurement,setting,value
CCOC(=O)c1ccc(N)cc1 [Benzocaine],duration of effect,after application to skin or mucosal surface,30 to 60 min
same,time to peak effect after application,in contact with skin or mucosal surface,≤ 1 min
